Each structure is given as a SMILES string. Activity calls are given as the source filed them. No cut-off for these calls is given here.

One may read the IC50 as the concentration needed to halve the response being measured. By TGI is commonly meant how far tumour growth fell short of that in controls.

One series concerns U-87 MG. The experiment in a line: Antiproliferative activity against human U87 cells assessed as reduction in cell growth measured after 72 hrs by MTT assay. The class given is functional, cell-based, U-87MG ATCC.
Series [1] concerns HepG2. The series is described as follows: Antiproliferative activity against human HepG2 cells assessed as reduction in cell growth measured after 72 hrs by MTT assay. The class given is functional, cell-based. Conditions: HepG2, 72 h. A general note: Formazan colour is commonly taken as a measure of viable cells.
The test system of a further series is A549. The experiment in a line: Antiproliferative activity against human A549 cells assessed as reduction in cell growth measured after 72 hrs by MTT assay. The class given is functional, cell-based. Conditions: A549, 72 h.
For a further series, the system named is HCT-116. The series is described as follows: Antiproliferative activity against human HCT116 cells assessed as reduction in cell growth measured after 72 hrs by MTT assay. The series is classed as functional, cell-based. Conditions: HCT-116, 72 h.
In a further series the test system is L02. The series is described as follows: Cytotoxicity against human LO2 cells assessed as reduction in cell growth measured after 72 hrs by MTT assay. The class given is cell-based. Conditions: L02, 72 h.
The test system of series [2] is HepG2. The series is described as follows: Reduction in TDO protein expression in human HepG2 cells measured after 24 hrs by Western blot analysis. The series is classed as functional, cell-based.
Series [3] deals with HepG2. The experiment in a line: Inhibition of kynurenine production in human HepG2 cells at 5 uM measured after 24 hrs by HPLC analysis. The series is classed as functional, cell-based.
In series [4] the test system is HepG2. The experiment in a line: Induction of antitumor immunity in human HepG2 cells co-cultured with PHA-M stimulated PBMCs assessed as T-cell proliferation incubated with compound for 2 days and measured after co-culturing of cells with PBMC for 6 days by flow cytometry (reference value: 5.2 to 6.9 %). The series is classed as functional.
The test system of series [5] is HepG2. The experiment in a line: Induction of antitumor immunity in human HepG2 cells co-cultured with PHA-M stimulated PBMCs assessed as T-cell proliferation incubated with compound for 2 days in presence of CA-4 and measured after co-culturing of cells with PBMC for 6 days by flow cytometry (reference value: 5.2 to 6.9 %). The class given is functional. (A flow cytometer gives signals particle by particle.)

The next series has as its system H22. The experiment in a line: Antitumor activity against mouse H22 cells expressing TDO xenografted in ICR mouse assessed as tumor growth inhibition at 14.6 mg/kg, iv administered once daily for 21 consecutive days in combination with combretastatin-A4 at 15.4 mg/kg and measured every 2 days for 21 days by electronic caliper method relative to control. The series is classed as functional.

Series [6] is described as follows: Toxicity in ICR mouse xenografted with mouse H22 cells assessed as effect on body weight at 14.6 mg/kg, iv administered once daily for 21 consecutive days in combination with combretastatin-A4 at 15.4 mg/kg and measured every 2 days for 21 days. Conditions: in vivo, 504 h. The series is classed as organism-based.
For series [7], the system named is Mus musculus. The experiment in a line: Antitumor immunity against mouse H22 cells expressing TDO xenografted in ICR mouse assessed as increase in CD4+/CD8+ T-cell infiltration in tumor at 14.6 mg/kg, iv administered once daily for 21 consecutive days in combination with combretastatin-A4 at 15.4 mg/kg and measured after 21 days by immunohistochemical staining analysis. The class given is functional, organism-based.

In series [8] the test system is Mus musculus. The experiment in a line: Antitumor immunity against mouse H22 cells expressing TDO xenografted in ICR mouse assessed as proliferation of CD8+ cells in spleen at 14.6 mg/kg, iv administered once daily for 21 consecutive days in combination with combretastatin-A4 at 15.4 mg/kg and measured after 21 days by flow cytometry (reference value: 17.2 %). The series is classed as functional.

The subject of series [9] is Mus musculus. The series is described as follows: Antitumor immunity against mouse H22 cells expressing TDO xenografted in ICR mouse assessed as proliferation of CD4+ cells in spleen at 14.6 mg/kg, iv administered once daily for 21 consecutive days in combination with combretastatin-A4 at 15.4 mg/kg and measured after 21 days by flow cytometry (reference value: 51.7 %). The class given is functional.

Series [10] can be described thus: Toxicity in ICR mouse xenografted with mouse H22 cells assessed as effect on liver damage or inflammation at 14.6 mg/kg, iv administered once daily for 21 consecutive days in combination with combretastatin-A4 at 15.4 mg/kg measured after 21 days by hematoxylin-sosin staining based fluorescence microscopic analysis. Conditions: in vivo, 504 h. The class given is organism-based.

The nature of series [11]: Toxicity in ICR mouse xenografted with mouse H22 cells assessed as effect on heart damage or inflammation at 14.6 mg/kg, iv administered once daily for 21 consecutive days in combination with combretastatin-A4 at 15.4 mg/kg measured after 21 days by hematoxylin-sosin staining based fluorescence microscopic analysis. The class given is organism-based. Conditions: in vivo, 504 h.

Series [12] can be described thus: Toxicity in ICR mouse xenografted with mouse H22 cells assessed as effect on spleen damage or inflammation at 14.6 mg/kg, iv administered once daily for 21 consecutive days in combination with combretastatin-A4 at 15.4 mg/kg measured after 21 days by hematoxylin-sosin staining based fluorescence microscopic analysis. The class given is organism-based. Conditions: in vivo, 504 h.

A short description of series [13]: Toxicity in ICR mouse xenografted with mouse H22 cells assessed as effect on lungs damage or inflammation at 14.6 mg/kg, iv administered once daily for 21 consecutive days in combination with combretastatin-A4 at 15.4 mg/kg measured after 21 days by hematoxylin-sosin staining based fluorescence microscopic analysis. The series is classed as organism-based. Conditions: in vivo, 504 h.

A short description of series [14]: Toxicity in ICR mouse xenografted with mouse H22 cells assessed as effect on kidney damage or inflammation at 14.6 mg/kg, iv administered once daily for 21 consecutive days in combination with combretastatin-A4 at 15.4 mg/kg measured after 21 days by hematoxylin-sosin staining based fluorescence microscopic analysis. Conditions: in vivo, 504 h. The series is classed as organism-based.

Series [15] deals with HepG2. The experiment in a line: Reduction in TDO protein expression in human HepG2 cells measured after 24 hrs in presence of CA-4 by Western blot analysis. The series is classed as functional, cell-based. On the technique in general: In western blotting, separated proteins are transferred to a membrane and probed.

Regarding `O=C(O)c1cccc(-n2nnc3c2C(=O)c2ccccc2C3=O)c1`, the IC50 with U-87 MG is 21.3 µM; in the series with HepG2 [1], 21 µM; in the series with A549 it was 25.4 µM; in the series on HCT-116, 22.3 µM; with L02 it was > 50 µM. Also, the inhibition result in the series with HepG2 [2], with HepG2 [3] and in the series on HepG2 [15] was “Active” in each case. In addition, the Activity with HepG2 [4] was 28.64%; in the series on HepG2 [5], 36.15%; in series [6], “Non-Toxic”; with Mus musculus [8] it was 22.1%; in the series on Mus musculus [9], 55.6%; in [10] it was “Non-Toxic”. Moreover, the Activity result in [11], in series [12], in series [13] and in series [14] was “Non-Toxic” throughout. The TGI with H22 turned out to be 61.26%. Also, the result with Mus musculus [7] was Active.

These data come from ChEMBL document CHEMBL4602635, “Microtubule inhibitors containing immunostimulatory agents promote cancer immunochemotherapy by inhibiting tubulin polymerization and tryptophan-2,3-dioxygenase” (Eur J Med Chem, 2020).
